In article PMC10319850, “Crystal structure of [1,2,4] triazolo[4,3- b ]pyridazine derivatives as BRD4 bromodomain inhibitors and structure–activity relationship study” (Scientific Reports, 2023):
Where two headings read alike, the source gives them in different places.

Experiments:
BRD4 BD1 = BRD4 BD1 (Homo sapiens, UniProt O60885); experiment: AlphaScreen assay, BRD4 BD1 inhibition; format: binding; conditions: for inhibitory activity against BD1 (in words): measured range 0.0096 to 32 μM
Protocol: To find the hit molecules for BRD4 bromodomain inhibitor discovery, we performed an in vitro AlphaScreen assay with in-house chemical libraries.
The AlphaScreen assay was described previously and performed according to the manufacturer’s protocol (PerkinElmer, USA). The reaction buffer was 50 mM HEPES pH 7.4, 100 mM NaCl, 0.1% BSA, and 0.05% CHAPS.

BRD4 BD2 = BRD4 BD2 (Homo sapiens, UniProt O60885); experiment: AlphaScreen assay, BRD4 BD2 inhibition; conditions: for inhibitory activity for BD2 (in words): AlphaScreen
[1] = Supplementary Table S2, mean of three independent measurements, 8-point titration from 0.0096 to 32 μM, read-out: IC50 (μM) for BD1
[2] = AlphaScreen, N = 3, standard deviations in parentheses, read-out: IC50 (BD1)

inhibitory activity against BD1 (in words) (BRD4 BD1; AlphaScreen)	IC50 (BRD4 BD1; [1]) [µM]	SMILES	also measured
no blocking activities	> 32	Cc1nnc2ccc(N3CCCCC3)nn12 [Compound 13]	
no inhibition	> 32	Fc1ccc2[nH]c3c(c2c1)CCN(c1ccc2nnc(-c4ccccc4F)n2n1)C3 [Compound 11, 6-Fluoro-2-[3-(2-fluorophenyl)-[1,2,4]triazolo[4,3-b]pyridazin-6-yl]-1,3,4,9-tetrahydropyrido[3,4-b]indole]	
nearly same blocking efficacy	29 ± 5.7	Cc1nnc2ccc(NCCc3c[nH]c4ccc(F)cc34)nn12 [Compound 7, N-[2-(5-fluoro-1H-indol-3-yl)ethyl]-3-methyl-[1,2,4]triazolo[4,3-b]pyridazin-6-amine]	
	8.91 ± 0.94	COc1ccc(CNc2ccc3nnc(C)n3n2)cc1 [Compound 37]	
	> 32	Cc1nnc2ccc(NCCNC(=O)c3ccccc3)nn12 [Compound 39]	
exhibited inhibitory activities	6.21 ± 1.2	Cc1nnc2ccc(N3CCC4(CC3)CN(C(=O)OC(C)(C)C)C4)nn12 [Compound 21]	
	> 32	Cc1nnc2ccc(NCCNC(=O)Nc3ccccc3)nn12 [Compound 40]	
	> 32	Cc1nnc2ccc(NCCC(=O)O)nn12 [Compound 28]	
	> 32	Cc1nnc2ccc(NCCNC(=O)OC(C)(C)C)nn12 [Compound 32]	
		Cc1nnc2ccc(NCCc3c[nH]c4ccccc34)nn12 [Compound 5]	IC50 (BRD4 BD1; [2]): 17.1 µM; IC50 (BRD4 BD2): 23.2 µM; inhibitory activity for BD2 (in words) (BRD4 BD2): have inhibitory activities for BD2
	> 32	CCC(=O)NCCNc1ccc2nnc(C)n2n1 [Compound 34]	
showed inhibitory activity	7.51 ± 0.63	CCOC(=O)CCNc1ccc2nnc(C)n2n1 [Compound 33]	
no inhibitory efficacy	> 32	CC1CCN(c2ccc3nnc(CNS(=O)(=O)N(C)C)n3n2)CC1 [Compound 15]	
	> 32	CC(C)N1CCN(c2ccc3nnc(C4CCC4)n3n2)CC1 [Compound 27, 3-cyclobutyl-6-(4-isopropylpiperazino)[1,2,4]triazolo[4,3-b]pyridazine]	
	> 32	Cc1nnc2ccc(NCCO)nn12 [Compound 31]	
no inhibitory efficacy	> 32	Cc1nnc2ccc(N3CCSCC3)nn12 [Compound 17]	
	> 32	CC(C)c1nnc2ccc(N3CCC(C(=O)NC4CC4)CC3)nn12 [Compound 26, N-cyclopropyl-1-[3-(propan-2-yl)[1,2,4]triazolo[4,3-b]pyridazin-6-yl]piperidine-4-carboxamide]	
	> 32	Cc1nnc2ccc(N3CCC4(CC3)OCCO4)nn12 [Compound 20]	
nearly same blocking efficacy	25.7 ± 11.1	COc1ccc2[nH]cc(CCNc3ccc4nnc(C)n4n3)c2c1 [Compound 8, N-[2-(5-methoxy-1H-indol-3-yl)ethyl)-3-methyl-[1,2,4]triazolo[4,3-b]pyridazin-6-amine]	
	> 32	CCS(=O)(=O)NCCNc1ccc2nnc(C)n2n1 [Compound 29]	
	10.2 ± 1.29	Cc1nnc2ccc(NCc3ccccc3)nn12 [Compound 35]	
	> 32	Cc1nnc2ccc(N3CCC4(CCNCC4)CC3)nn12 [Compound 22]	
	> 32	CC(C)CCNC(=O)C1CCN(c2ccc3nnc(C(C)C)n3n2)CC1 [Compound 25, N-(3-methylbutyl)-1-[3-(propan-2-yl)[1,2,4]triazolo[4,3-b]pyridazin-6-yl]piperidine-4-carboxamide]	
	> 32	CC(C)c1nnc2ccc(N3CCC(C(=O)O)CC3)nn12 [Compound 24, 1-(3-Isopropyl-[1,2,4]triazolo[4,3-b]pyridazin-6-yl)piperidine-4-carboxylic acid]	
no inhibitory efficacy	> 32	Cc1nnc2ccc(N3CCOCC3)nn12 [Compound 16]	
	> 32	Cc1nnc2ccc(NCCC(=O)Nc3ccccc3)nn12 [Compound 38]	
	> 32	Cc1nnc2ccc(N3CCC4(CC3)CNC4)nn12 [Compound 23]	
exhibited inhibitory activities	9.22 ± 1.6	Cc1nnc2ccc(N3CCC4(CCN(C(=O)OC(C)(C)C)CC4)CC3)nn12 [Compound 19]	
did not much improved the IC50 value		FC(F)(F)c1nnc2ccc(NCCc3c[nH]c4ccccc34)nn12 [Compound 6, N-[2-(1H-indol-3-yl)ethyl)-3-(trifluoromethyl)-[1,2,4]triazolo[4,3-b]pyridazin-6-amine]	IC50 (BRD4 BD1; [2]): 9.6 µM; IC50 (BRD4 BD2): 11.3 µM; inhibitory activity for BD2 (in words) (BRD4 BD2): have inhibitory activities for BD2

SMILES	inhibitory activity against BD1 (in words) (BRD4 BD1; AlphaScreen)	IC50 (BRD4 BD1; [1]) [µM]	also measured
Cc1nnc2ccc(N3C4CCC3COC4)nn12 [Compound 18]	no inhibitory efficacy	> 32	
FC(F)(F)c1nnc2ccc(NCC(c3ccccc3)c3c[nH]c4ccccc34)nn12 (stereo not drawn) [Compound 9, N-[2-(1H-indol-3-yl)-2-phenylethyl]-3-(trifluoromethyl)-[1,2,4]triazolo[4,3-b]pyridazin-6-amine]	increased the IC50 value by only twofold compared to that of 6	23.4 ± 8.3	
Fc1cc2[nH]cc(CCNc3ccc4nnc(C5CC5)n4n3)c2cc1Cl [Compound 10, N-[2-(5-chloro-6-fluoro-1H-indol-3-yl)ethyl]-3-cyclopropyl-[1,2,4]triazolo[4,3-b]pyridazin-6-amine]	no inhibitory efficiency in the measured range	> 32	
CCc1nnc2ccc(NC(CO)Cc3c[nH]c4ccccc34)nn12 (stereo not drawn) [Compound 12, 2-[(3-ethyl-[1,2,4]triazolo[4,3-b]pyridazin-6-yl)amino]-3-(1H-indol-3-yl)propan-1-ol]	decreased blocking efficiency compared to that of 5		IC50 (BRD4 BD1; [2]): 25.2 µM; IC50 (BRD4 BD2): 36.5 µM; inhibitory activity for BD2 (in words) (BRD4 BD2): have inhibitory activities for BD2
